Here are results for 3 substances from patent US9950038B2, “Methods and compositions for inhibiting delayed graft function” (THE TRUSTEES OF THE UNIVERSIY OF PENNSYLVANIA, priority 2011, dated 2018).

Assay [1] has as its system humans with acute myocardial infarction. Briefly: Infusion at reperfusion in humans with acute myocardial infarction. The assay is classed as in vivo. From the text: Lower panel illustrates individual data. […] Lower panel illustrates individual data.
(§1) This mechanism involves improved ventricular relaxation which is known to be most sensitive to ATP depletion.

Assay [2] deals with conscious pigs with biventricular failure. Briefly: Chronic conscious pig model of biventricular failure with impaired renal blood flow. The format is in vivo. The conditions noted are these: short term (2 hours) infusion, 1.5 pmol/kg/min. The source says:
FIG. 4, comprising FIG. 4A and 4B show impaired renal blood flow but not cardiac output in pigs with biventricular failure.
There is a model of biventricular heart failure in conscious pigs that is associated with reductions in renal blood flow and function. FIG. 3 illustrates the model and the perturbation in renal blood flow. This is an important model of cardio-renal syndrome in which renal and cardiac injury are found together. FIG. 4 illustrates a 50% reduction in renal blood flow without a reduction in cardiac output in conscious pigs with biventricular failure.

The subject of the next assay is HIF-1a. Briefly: HIF-1a induction in normal hearts. The assay is classed as in vivo. The conditions noted are these: intravenous continuous administration. From the text: The induction of this cyto-protective program is beneficial in the face of subsequent ischemic injury in allografts. p38 MAP kinase activation has been associated with the stabilization of praline residues which otherwise target the HIF-1a subunits to ubiquinization. The stabilization allows the subunits to form heterodimers which active a gene program of cytoprotection.

Assay [3] deals with conscious dogs with pacing-induced DCM. Put plainly: Myocardial glucose uptake during hyperinsulinemic euglycemic clamp in conscious dogs with pacing-induced DCM. The format is in vivo. The conditions noted are these: basal and insulin-stimulated. From the text: This provides glycolytic ATP without further increases in mitochondrial ROS production. […] This provides the rationale for the use of the native peptide in the treatment of post-ischemic allograft injury.

A further assay deals with conscious dogs. Put plainly: Recovery after coronary artery occlusion and reperfusion in conscious dogs. The assay is classed as in vivo. The conditions noted are these: 1.5 pmol/kg/min at the time of reperfusion following coronary artery occlusion.
Source text: CBF and respective regional wall thickening responses to CAO and CAR. The CBF response (top) is characterized by reactive hyperemia followed by gradual return of flow to pre-occlusion levels in both control and GLP-1-treated animals. The different patterns of recovery of regional contractile function between the two groups are illustrated (bottom).
as §1

Assay [4] concerns patients with Class 3-4 heart failure. Briefly: Administration to patients with Class 3-4 heart failure. The assay is classed as in vivo, humans. The conditions noted are these: administered for 5 weeks.

Ends that are not written are not given here.

As to Glucagon-like peptide-1 [GLP-1], in assay [1] (GLP-1 infusion, population not given), the “requirement for inotropic and pressure support” value was “reduces the requirement for inotropic and pressure support”. Moreover, in assay [2], the GFR result is listed as “improvement in GFR”, the renal blood flow entry is given as “returned renal blood flow to near normal levels” and the urinary sodium excretion entry is “increased urinary sodium excretion”. In addition, in the assay on HIF-1a, the “HIF-1a mRNA” value is on record as “increases in HIF-1a mRNA” and the “expression of HIF-1a inducible genes, heme-oxygenase-1 (HO-1)” value is recorded as “increased expression of HIF-1a inducible genes, heme-oxygenase-1 (HO-1)”.
Consider “GLP-1 (9-36) amide (EGTFTSDVSSYLEGQAAKEFIAWLVKGR-NH2)”, for which the myocardial glucose uptake entry in assay [3] was “increase myocardial glucose uptake independent of an increase in circulating insulin”.
As for “GLP-1 (7-36) amide (HAEGTFTSDVSSYLEGQAAKEFIAWLVKGR-NH2)”, the “recovery of left ventricular function” value with conscious dogs is “more rapid and complete recovery of left ventricular function”. In assay [1] (1.5 pmol/kg/min at the time of reperfusion, humans with acute myocardial infarction, versus patients on comparable therapies without GLP-1), the “peri-infarct and global LV function” value was “improved peri-infarct and global LV function”. Moreover, the natriuresis result in assay [4] was “significant natriuresis that required reduction in diuretic doses”. Also, the myocardial glucose uptake result in assay [3] is “increase myocardial glucose uptake independent of an increase in circulating insulin”.
